The subject of experiment [1] is ethanol-induced gastric mucosal lesions. The experiment can be described thus: Preventive effect on in vivo ethanol-induced gastric injury. Further details: species or system Sprague-Dawley male rats. To be noted: rats, 10 mg/kg via oro-gastric tube prior to absolute ethanol 6 ml/kg for 1 hr, FIG. 3B. From the text: Six-week old specific-pathogen-free (SPF) Sprague-Dawley male rats (Charles River, Tokyo, Japan) were used for experiments. The rats were fed a sterilized commercial pellet diet (Biogenomics Co., Seoul, Korea), given sterile water ad libitum, and housed in air-conditioned biohazard room with a 12-h light:12-h dark cycle. The rats were divided into four groups; indomethacin-only treatment group, revaprazan-indomethacin treatment group, ethanol-only treatment group and revaprazan-ethanol treatment group. The rats were food-deprived 24 hours, and then administered with 10 mg/kg revaprazan suspended in 0.5% CMC (carboxymethylcellulose) via oro-gastric tube prior to exposure to either indomethacin (40 mg/kg for 12 hrs) or absolute ethanol (6 ml/kg for 1 hr). The stomachs of the rats belonging to the groups treated with indomethacin were excised and the degree of gastric mucosal lesions was observed (see FIG. 3A). Referring to FIG. 3A, in the indomethacin-only treatment group, increased hemorrhagic lesions in gastric mucosa were observed visually. […] Also, the stomachs of the rats belonging to the ethanol treatment groups were excised and the degree of gastric mucosal lesions was observed (see FIG. 3B).

Experiment [2] relates to indomethacin-induced gastric mucosal lesions. In words: Preventive effect on NSAID-induced gastropathy. To be noted: rats, oro-gastric pretreatment (revaprazan 5, 10 mg/kg; rebamipide 30 mg/kg; omeprazole 5 mg/kg) prior to indomethacin 40 mg/kg for 12 hrs, FIG. 8. In kind it is in vivo, Sprague Dawley male rats. On the procedure: Six-week old specific-pathogen-free (SPF) Sprague Dawley male rats (Charles River, Tokyo, Japan) were used for experiments. The rats were fed a sterilized commercial pellet diet (Biogenomics Co., Seoul, Korea), given sterile water ad libitum, and housed in air-conditioned biohazard room with a 12-h light:12-h dark cycle. The rats were food-deprived 24 hours, and then administered with 5, 10 mg/kg revaprazan, 30 mg/kg rebamipide and 5 mg/kg omeprazole suspended in 0.5% CMC (carboxymethylcellulose) via oro-gastric tube prior to exposure to indomethacin (40 mg/kg for 12 hrs). Phosphate-buffered saline was perfused into the gastric lumen of the rats to swell the stomachs. Then, the stomachs were opened by an incision along the greater curvature, and the total area of the gastric mucosal lesions was calculated to obtain the average size of the lesions.

Consider `Cc1nc(Nc2ccc(F)cc2)nc(N2CCc3ccccc3C2C)c1C` (centres unmarked) [revaprazan, 5,6-dimethyl-2-(4-fluorophenylamino)-4-(1-methyl-1,2,3,4-tetrahydroisoquinolin-2-yl)pyrimidine], for which the ethanol-induced gastric injury result in experiment [1] is listed as “completely inhibited”. Besides, the “hemorrhagic gastric mucosal lesions after pretreatment” value in experiment [2] is recorded as “little hemorrhagic lesions are observed”.

The record behind these values is US7776873B2, “Method for treating damage to gastric mucosa” (Yuhan Corporation, priority 2005, dated 2010).
